Experiments:
[1] = biological target: DYRK1B (Homo sapiens, UniProt Q9Y463); experiment: Protein kinase assay (Kinome assay); type: binding
Excerpt: (§1) The compounds of the invention were subjected to protein kinase assay.

[2] = biological target: RIOK2 (Homo sapiens, UniProt Q9BVS4); experiment: Protein kinase assay (Kinome assay); type: binding
Excerpt: as §1

[3] = biological target: PCTK1 (Homo sapiens, UniProt Q00536); experiment: Protein kinase assay (Kinome assay); type: binding
Excerpt: as §1

[4] = biological target: CSNK1D (Homo sapiens, UniProt P48730); experiment: Protein kinase assay (Kinome assay); type: binding
Chain of CSNK1D (P48730 whole entry, species assumed): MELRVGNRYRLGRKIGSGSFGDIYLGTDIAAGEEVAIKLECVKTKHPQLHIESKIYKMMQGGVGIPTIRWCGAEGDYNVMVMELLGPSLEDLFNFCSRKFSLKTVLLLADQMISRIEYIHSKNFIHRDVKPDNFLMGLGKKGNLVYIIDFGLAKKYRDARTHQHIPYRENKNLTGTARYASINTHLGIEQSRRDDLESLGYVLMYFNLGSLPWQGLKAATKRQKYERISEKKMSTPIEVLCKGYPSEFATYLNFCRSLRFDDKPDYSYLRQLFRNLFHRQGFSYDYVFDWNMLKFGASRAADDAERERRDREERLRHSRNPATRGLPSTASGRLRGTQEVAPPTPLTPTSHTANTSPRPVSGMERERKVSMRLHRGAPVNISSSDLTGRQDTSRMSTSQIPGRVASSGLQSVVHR
Excerpt: as §1

[5] = biological target: JNK3 (Homo sapiens, UniProt P53779); experiment: Protein kinase assay (Kinome assay); type: binding
Chain of JNK3 (P53779 whole entry, species assumed): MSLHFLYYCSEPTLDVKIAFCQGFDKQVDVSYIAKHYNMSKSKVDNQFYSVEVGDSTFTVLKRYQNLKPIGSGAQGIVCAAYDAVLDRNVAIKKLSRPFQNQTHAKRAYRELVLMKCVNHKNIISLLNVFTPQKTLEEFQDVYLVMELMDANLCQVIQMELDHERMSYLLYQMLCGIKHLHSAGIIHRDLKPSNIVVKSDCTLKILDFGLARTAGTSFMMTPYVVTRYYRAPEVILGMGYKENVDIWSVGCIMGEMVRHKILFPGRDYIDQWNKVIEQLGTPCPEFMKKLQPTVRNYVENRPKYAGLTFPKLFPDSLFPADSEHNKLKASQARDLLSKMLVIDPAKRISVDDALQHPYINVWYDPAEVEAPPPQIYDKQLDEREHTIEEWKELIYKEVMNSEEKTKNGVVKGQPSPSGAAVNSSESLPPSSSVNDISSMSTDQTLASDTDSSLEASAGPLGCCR
Excerpt: as §1

[6] = biological target: ROCK2 (Homo sapiens, UniProt O75116); experiment: Protein kinase assay (Kinome assay); type: binding
Chain of ROCK2 (O75116 whole entry, species assumed): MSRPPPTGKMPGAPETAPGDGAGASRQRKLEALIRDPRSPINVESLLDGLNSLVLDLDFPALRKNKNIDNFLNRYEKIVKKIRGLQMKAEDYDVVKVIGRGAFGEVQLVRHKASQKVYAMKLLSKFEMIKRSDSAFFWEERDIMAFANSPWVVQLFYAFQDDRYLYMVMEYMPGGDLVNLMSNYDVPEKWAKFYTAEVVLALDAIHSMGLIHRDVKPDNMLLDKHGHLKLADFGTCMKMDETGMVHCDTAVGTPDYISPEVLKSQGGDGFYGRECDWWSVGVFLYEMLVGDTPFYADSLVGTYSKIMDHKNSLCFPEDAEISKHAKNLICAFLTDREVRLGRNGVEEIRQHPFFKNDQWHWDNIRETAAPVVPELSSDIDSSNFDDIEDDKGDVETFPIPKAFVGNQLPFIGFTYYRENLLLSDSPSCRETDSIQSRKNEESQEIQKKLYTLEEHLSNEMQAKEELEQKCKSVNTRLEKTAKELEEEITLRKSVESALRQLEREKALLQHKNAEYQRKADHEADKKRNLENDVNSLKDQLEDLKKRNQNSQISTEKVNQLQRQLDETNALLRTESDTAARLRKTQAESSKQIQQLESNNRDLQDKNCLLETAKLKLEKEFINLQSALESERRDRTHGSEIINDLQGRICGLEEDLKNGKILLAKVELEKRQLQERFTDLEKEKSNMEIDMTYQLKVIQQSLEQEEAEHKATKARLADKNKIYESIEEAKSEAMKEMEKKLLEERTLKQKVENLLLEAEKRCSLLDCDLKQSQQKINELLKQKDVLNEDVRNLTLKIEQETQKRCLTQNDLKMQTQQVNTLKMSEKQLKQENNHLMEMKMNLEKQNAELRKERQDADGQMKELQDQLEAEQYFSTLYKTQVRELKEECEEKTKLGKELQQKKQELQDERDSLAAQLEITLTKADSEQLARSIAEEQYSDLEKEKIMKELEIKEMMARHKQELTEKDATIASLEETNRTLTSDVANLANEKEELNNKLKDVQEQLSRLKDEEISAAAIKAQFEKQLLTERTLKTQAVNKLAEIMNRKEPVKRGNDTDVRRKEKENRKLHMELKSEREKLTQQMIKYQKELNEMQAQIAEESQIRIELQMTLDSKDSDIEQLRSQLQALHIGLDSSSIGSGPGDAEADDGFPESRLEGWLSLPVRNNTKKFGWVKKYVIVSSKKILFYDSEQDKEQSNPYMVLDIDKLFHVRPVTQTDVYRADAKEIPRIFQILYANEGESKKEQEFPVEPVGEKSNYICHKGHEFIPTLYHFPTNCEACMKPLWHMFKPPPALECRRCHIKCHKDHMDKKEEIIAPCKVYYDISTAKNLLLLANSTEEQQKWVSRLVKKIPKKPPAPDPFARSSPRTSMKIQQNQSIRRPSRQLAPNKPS
Excerpt: as §1

[7] = biological target: JNK1 (Homo sapiens, UniProt P45983); experiment: Protein kinase assay (Kinome assay); type: binding
Chain of JNK1 (P45983 whole entry, species assumed): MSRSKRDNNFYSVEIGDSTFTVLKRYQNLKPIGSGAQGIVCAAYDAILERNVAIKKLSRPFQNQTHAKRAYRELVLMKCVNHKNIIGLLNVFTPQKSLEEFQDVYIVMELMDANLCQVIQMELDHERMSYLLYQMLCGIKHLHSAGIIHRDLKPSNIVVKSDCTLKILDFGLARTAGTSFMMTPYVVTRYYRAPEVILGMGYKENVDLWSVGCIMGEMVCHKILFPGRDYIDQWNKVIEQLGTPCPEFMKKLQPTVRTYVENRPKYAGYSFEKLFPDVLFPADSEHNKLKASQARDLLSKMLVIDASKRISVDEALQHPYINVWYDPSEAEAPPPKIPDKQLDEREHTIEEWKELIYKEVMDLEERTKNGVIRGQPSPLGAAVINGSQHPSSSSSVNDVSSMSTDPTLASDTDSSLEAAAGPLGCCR
Excerpt: as §1

[8] = system: H33HJ-JA1; experiment: Growth inhibition assay; type: cell-based; details: H33HJ-JA1 (T cell lymphoma), 48 hours
Experimental: (§2) Cells were seeded in 96-well plastic plates and exposed to MPT0L056 for 48 hours. Cell viability was assessed using the 3-(4,5-dimethylthiazol-2-yl)-2,5-diphenyltetrazolium bromide assay. Growth inhibition was expressed as the percentage of surviving cells in drug-treated versus DMSO-treated control cells.

[9] = system: BxPC3; experiment: Growth inhibition assay; type: cell-based; details: Homo sapiens, BXPC-3; BxPC3 (Pancreas cancer), 48 hours
Experimental: as §2

[10] = system: A549; experiment: Growth inhibition assay; type: cell-based; details: Homo sapiens; A549 (Lung cancer), 48 hours
Experimental: as §2

[11] = system: ACHN; experiment: Growth inhibition assay; type: cell-based; details: Homo sapiens; ACHN (Kidney cancer), 48 hours
Experimental: as §2

[12] = system: HepG2; experiment: Growth inhibition assay; type: cell-based; details: Homo sapiens; HepG2 (Liver cancer), 48 hours
Experimental: as §2

[13] = system: Ramos; experiment: Growth inhibition assay; type: cell-based; details: Homo sapiens; Ramos (B cell leukemia), 48 hours
Experimental: as §2

[14] = system: U-87 MG; experiment: Growth inhibition assay; type: cell-based; details: Homo sapiens; U-87 MG (Brain cancer), 48 hours
Experimental: as §2

[15] = system: REH; experiment: Growth inhibition assay; type: cell-based; details: Homo sapiens; REH (B cell leukemia), 48 hours
Experimental: as §2

[16] = system: K562; experiment: Growth inhibition assay; type: cell-based; details: Homo sapiens; K562 (Leukemia), 48 hours
Experimental: as §2

[17] = system: MCF-7; experiment: Growth inhibition assay; type: cell-based; details: Homo sapiens, MCF7; MCF-7 (Breast cancer), 48 hours
Experimental: as §2

[18] = system: HT-29; experiment: Growth inhibition assay; type: cell-based; details: Homo sapiens; HT-29 (Colorectal cancer), 48 hours
Experimental: as §2

[19] = system: ZR-75; experiment: Growth inhibition assay; type: cell-based; details: ZR75; ZR-75 (Breast cancer), 48 hours
Experimental: as §2

[20] = system: OVCAR4; experiment: Growth inhibition assay; type: cell-based; details: Homo sapiens, OVCAR-4; OVCAR4 (Ovarian cancer), 48 hours
Experimental: as §2

[21] = system: HUVECs; experiment: Growth inhibition assay; type: cell-based; details: Homo sapiens, HUVEC; HUVECs (Normal cells), 48 hours
Experimental: as §2

[22] = system: MOLT4; experiment: Growth inhibition assay; type: cell-based; details: Homo sapiens, MOLT-4; MOLT4 (Leukemia), 48 hours
Experimental: as §2

[23] = system: NCI-H460; experiment: Growth inhibition assay; type: cell-based; details: Homo sapiens; NCI-H460 (Lung cancer), 48 hours
Experimental: as §2

[24] = system: NHDF; experiment: Growth inhibition assay; type: cell-based; details: Homo sapiens; NHDF (Normal cells), 48 hours
Experimental: as §2

[25] = system: A431; experiment: Growth inhibition assay; type: cell-based; details: Homo sapiens, A-431; A431 (Skin cancer), 48 hours
Experimental: as §2

[26] = system: OVCAR3; experiment: Growth inhibition assay; type: cell-based; details: Homo sapiens, OVCAR-3; OVCAR3 (Ovarian cancer), 48 hours
Experimental: as §2

[27] = system: PC-6; experiment: Growth inhibition assay; type: cell-based; details: Homo sapiens; PC-6 (Lung cancer), 48 hours
Experimental: as §2

[28] = system: T98; experiment: Growth inhibition assay; type: cell-based; details: Homo sapiens; T98 (Brain cancer), 48 hours
Experimental: as §2

[29] = system: PC-3; experiment: Growth inhibition assay; type: cell-based; details: Homo sapiens; PC-3 (Prostate cancer), 48 hours
Experimental: as §2

[30] = system: Hepatocytes; experiment: Growth inhibition assay; type: cell-based; details: Hepatocyte; Hepatocytes (Normal cells), 48 hours
Experimental: as §2

[31] = system: KATO III; experiment: Growth inhibition assay; type: cell-based; details: Homo sapiens; KATO III (Stomach cancer), 48 hours
Experimental: as §2

[32] = system: SK-MEL-5; experiment: Growth inhibition assay; type: cell-based; details: Homo sapiens; SK-MEL-5 (Melanoma), 48 hours
Experimental: as §2

[33] = system: A-498; experiment: Growth inhibition assay; type: cell-based; details: Homo sapiens, A498; A-498 (Kidney cancer), 48 hours
Experimental: as §2

[34] = system: AsPC1; experiment: Growth inhibition assay; type: cell-based; details: Homo sapiens; AsPC1 (Pancreas cancer), 48 hours
Experimental: as §2

[35] = system: human A2780 ovarian adenocarcinoma; experiment: Human A2780 ovarian cancer xenograft in female nude mice (TMU-A2780-e0001); type: in vivo

Chain of RIOK2 (Q9BVS4 whole entry, species assumed): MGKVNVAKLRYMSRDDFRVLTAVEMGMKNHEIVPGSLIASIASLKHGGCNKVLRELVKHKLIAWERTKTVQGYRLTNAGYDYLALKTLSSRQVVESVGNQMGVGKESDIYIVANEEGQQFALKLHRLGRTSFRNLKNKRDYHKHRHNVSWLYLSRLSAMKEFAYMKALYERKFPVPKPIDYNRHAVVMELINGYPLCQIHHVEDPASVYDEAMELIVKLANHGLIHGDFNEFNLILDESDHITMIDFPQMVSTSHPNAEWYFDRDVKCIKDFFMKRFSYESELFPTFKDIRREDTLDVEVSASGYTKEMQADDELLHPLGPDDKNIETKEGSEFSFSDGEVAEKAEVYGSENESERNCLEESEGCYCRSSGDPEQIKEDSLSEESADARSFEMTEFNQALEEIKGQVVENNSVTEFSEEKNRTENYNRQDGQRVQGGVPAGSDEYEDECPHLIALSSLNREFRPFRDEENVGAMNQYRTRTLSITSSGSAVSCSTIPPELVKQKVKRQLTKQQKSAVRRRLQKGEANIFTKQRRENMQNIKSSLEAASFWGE
Chain of PCTK1 (Q00536 whole entry, species assumed): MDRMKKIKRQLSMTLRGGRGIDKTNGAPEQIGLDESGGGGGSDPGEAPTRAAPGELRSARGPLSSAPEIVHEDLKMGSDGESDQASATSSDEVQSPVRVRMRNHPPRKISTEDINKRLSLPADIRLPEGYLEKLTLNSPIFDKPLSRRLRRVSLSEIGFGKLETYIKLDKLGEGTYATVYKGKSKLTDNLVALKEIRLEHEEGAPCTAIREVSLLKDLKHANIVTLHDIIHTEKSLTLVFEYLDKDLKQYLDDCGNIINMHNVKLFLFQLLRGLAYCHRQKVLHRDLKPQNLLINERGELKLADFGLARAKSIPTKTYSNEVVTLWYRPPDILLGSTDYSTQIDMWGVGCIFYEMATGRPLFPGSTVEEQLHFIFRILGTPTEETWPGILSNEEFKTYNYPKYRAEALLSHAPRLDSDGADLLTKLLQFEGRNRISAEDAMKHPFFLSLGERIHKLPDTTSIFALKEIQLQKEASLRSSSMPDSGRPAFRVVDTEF
Chain of DYRK1B (Q9Y463 whole entry, species assumed): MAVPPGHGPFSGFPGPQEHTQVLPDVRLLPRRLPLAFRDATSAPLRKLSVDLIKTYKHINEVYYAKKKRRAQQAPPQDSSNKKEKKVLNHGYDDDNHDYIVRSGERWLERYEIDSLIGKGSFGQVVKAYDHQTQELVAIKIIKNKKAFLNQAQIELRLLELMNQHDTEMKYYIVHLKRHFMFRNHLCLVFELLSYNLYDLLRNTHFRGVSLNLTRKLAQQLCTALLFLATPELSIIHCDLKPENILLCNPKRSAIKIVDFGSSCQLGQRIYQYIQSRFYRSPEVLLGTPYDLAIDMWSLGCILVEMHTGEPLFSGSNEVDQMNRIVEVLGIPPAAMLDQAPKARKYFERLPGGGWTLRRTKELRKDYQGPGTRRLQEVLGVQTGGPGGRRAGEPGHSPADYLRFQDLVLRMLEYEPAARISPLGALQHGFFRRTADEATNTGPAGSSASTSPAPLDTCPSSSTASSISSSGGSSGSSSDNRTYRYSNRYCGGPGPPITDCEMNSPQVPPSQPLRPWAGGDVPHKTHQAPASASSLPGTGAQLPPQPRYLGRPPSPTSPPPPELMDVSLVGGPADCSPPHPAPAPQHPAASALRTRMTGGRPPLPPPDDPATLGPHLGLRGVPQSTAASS

`O=C(Nc1ccncc1)c1ccc(CNC2=C(Cl)C(=O)c3ccccc3C2=O)cc1` [MPT0L056] was tested, and the Kd [1] was 1.4 µM, the Kd [2] was 6.6 µM and the Kd [3] was greater than 10 µM. It also gave a Kd [4] of 2 µM, a Kd [5] of 0.43 µM and a Kd [6] of 0.58 µM. It also gave a Kd [7] of 4.2 µM, a GI50 [8] of 1.8 µM and a GI50 [9] of 1.2 µM. For the same molecule, the GI50 [10] was greater than 5 µM, the GI50 [11] was 2.7 µM and the GI50 [12] was 3.6 µM. It also gave a GI50 [13] of 0.89 µM, a GI50 [14] of 2.5 µM and a GI50 [15] of 2.8 µM. The GI50 [16] was 1.7 µM, the GI50 [17] was 0.9 µM and the GI50 [18] was 3.8 µM. For the same molecule, the GI50 [19] was greater than 5 µM, the GI50 [20] was 1.4 µM and the GI50 [21] was 16 µM. The GI50 [22] was 4 µM, the GI50 [23] was 2.9 µM and the GI50 [24] was 6.3 µM. The GI50 [25] was 1.2 µM, the GI50 [26] was 1.9 µM and the GI50 [27] was 1.8 µM. It also gave a GI50 [28] of 5.7 µM, a GI50 [29] of 2.5 µM and a GI50 [30] of 30 µM. The GI50 [31] was 2.4 µM, the GI50 [32] was 0.21 µM and the GI50 [33] was 3.5 µM. The GI50 [34] was 4.6 µM, the antitumor activity ([35]; MPT0L056 50 mg/kg (so in the source) p.o. once every day to the end) was “but not 50 mg/kg (P>0.05) produced significant antitumor activity” and the antitumor activity ([35]; MPT0L056 200 mg/kg p.o. once every day to the end) was “produced significant antitumor activity”. For the same molecule, the body weight change ([35]; MPT0L056 100 and 200 mg/kg, FIG. 8) was “did not significantly affect the animal body weight”.

Source: patent publication US11919858B2, “Aminonapthoquinone compounds and pharmaceutical composition for blocking ubiquitination-proteasome system in diseases” (Calgent Biotechnology Co., Ltd., priority 2015, dated 2024)
